Entries after “also recorded” stand apart in the source; their conditions may differ.
Tests used:
HepG2 cells = assay: LDH-release cytotoxicity assay in HepG2 cells cultured in isotonic or hypertonic (AR-inducing) medium; format: cell-based, human; details: for effect on HepG2 cells (LDH release): 50 μM ND; for toxic effect (LDH released into the medium): 5 hours
Procedure: HepG2 cells, a human liver cell line, were purchased from the American Type Culture Collection (Rockville, Md.). The basic (isotonic) medium was MEM medium supplemented with 10% fetal bovine serum, 100 U/ml penicillin, 100 μg/ml streptomycin, 0.1 mM MEM non-essential amino acids, and 1 mM sodium pyruvate. Medium was made hypertonic by adding NaCl to 100 mM, and the osmolarity was about 500 mosmol/kg as determined by osmometer. ND was dissolved in 20% ethanol to make a 50 mM stock solution. NQ was dissolved in 100% ethanol to make a 50 mM stock solution. AL1576 was dissolved in 20 mM NaOH to make a 20 mM stock solution.
Cells were first cultured in isotonic medium until 70% confluent. The medium was then made hypertonic by NaCl and incubated for 72 hours. The cells were then seeded onto 24-well plate at 8×10^4 cells/well and incubated for 24 hours in hypertonic medium. Cells for isotonic control were processed in parallel except that no NaCl was added. ND and AR inhibitor AL1576 were added as indicated.
Cytotoxicity was measured by the percent of LDH (lactate dehydrogenase) released into the medium. LDH activity was determined by Cytotoxicity Detection Kit. The optical density of the colored product was measured at 492 and 690 nm by SpectraMax 340 Microplate reader (Molecular Devices). LDH released into the medium was measured by taking samples of the medium. Total LDH was determined by taking samples of cell extracts lysed by Triton X-100 at a final concentration of 1%.

[1] = format: physicochemical
From the text: Naphthalene is insoluble in water. […] Accordingly, ND, the metabolized product of naphthalene (see FIG. 1), rather than naphthalene, was used to test the cytotoxic activity of the drug that is activated AR overproduced by HepG2 cells.

[2] = rabbit cataract model; taken as the likely toxic level for oral administration; cited from earlier work

Compound: O=C1NC(=O)C2(N1)c1cc(F)ccc1-c1ccc(F)cc12 [AL1576, 2,7-difluorospirofluorene-9,5′-imidazolidine-2′4′-dione, reference compound]
- protection of HepG2 cells against the toxic effects of ND by the AR inhibitor (HepG2 cells; HepG2 cells in hypertonic medium with ND): can protect these cells against the toxic effects of ND

Compound: OC1C=Cc2ccccc2C1O (stereo not shown) [ND, naphthalene-1,2-dihydrodiol]
- effect on HepG2 cells (LDH release) (HepG2 cells; hypertonic medium): no effect
- effect on HepG2 cells (LDH release) (HepG2 cells; isotonic medium): no effect
- toxic effect (LDH released into the medium) (HepG2 cells; 500 μM ND, HepG2 cells in hypertonic medium (AR overexpressed)): highly toxic
- toxic effect (LDH released into the medium) (HepG2 cells; 500 μM ND, HepG2 cells in isotonic medium): no sign of toxic effects; also recorded: no toxic effect
- LDH released relative to that released by control cells (isotonic medium) (HepG2 cells; 500 μM ND, hypertonic versus isotonic medium): more than 10 times
- sensitivity of HepG2 cells to ND in hypertonic versus isotonic medium (HepG2 cells; hypertonic versus isotonic medium): 10 times

Compound: c1ccc2ccccc2c1 [Naphthalene]
- behaviour when added to the medium [1]: quickly precipitates
- solubility in water [1]: insoluble
- dose at which cataract and degeneration of the retina develop [2]: about 1 g/kg body weight

Reference: patent publication US20030212147A1, “Enzyme activated chemotherapy of liver cancer” (priority 2003, published 2003)
